Results as given in paper doi:10.1101/2025.02.11.637513v1 (bioRxiv, 2025).

Experiments:
Assay in all cases: tetrapeptide-ACC substrate cleavage kinetics
Type in all cases: biochemical
[1] = target: T1, human caspase-1 (Homo sapiens, UniProt P29466); conditions: Ac-P4-P3-P2-Asp-ACC substrate, 0.05-500 μM, 2-15 nM enzyme, 37°C, triplicate
T1 sequence (P29466 120-297 limits assumed): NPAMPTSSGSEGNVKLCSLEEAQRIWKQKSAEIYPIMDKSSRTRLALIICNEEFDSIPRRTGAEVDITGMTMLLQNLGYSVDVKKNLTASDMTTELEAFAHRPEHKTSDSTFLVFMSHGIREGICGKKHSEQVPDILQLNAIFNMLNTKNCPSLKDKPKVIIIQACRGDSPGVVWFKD
T1 sequence (P29466 317-404 limits assumed): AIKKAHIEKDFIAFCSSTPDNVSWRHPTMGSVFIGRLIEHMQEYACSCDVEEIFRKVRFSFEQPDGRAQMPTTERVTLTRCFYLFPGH

[2] = target: T2, human caspase-5 (Homo sapiens, UniProt P51878); conditions: Ac-P4-P3-P2-Asp-ACC substrate, 0.05-500 μM, 20-250 nM enzyme, 37°C, triplicate
T2 sequence (P51878 137-327 limits assumed): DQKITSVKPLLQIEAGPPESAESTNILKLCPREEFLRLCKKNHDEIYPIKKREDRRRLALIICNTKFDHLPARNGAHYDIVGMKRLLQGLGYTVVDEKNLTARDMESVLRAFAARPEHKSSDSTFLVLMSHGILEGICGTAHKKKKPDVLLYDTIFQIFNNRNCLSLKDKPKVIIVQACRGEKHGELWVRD
T2 sequence (P51878 347-434 limits assumed): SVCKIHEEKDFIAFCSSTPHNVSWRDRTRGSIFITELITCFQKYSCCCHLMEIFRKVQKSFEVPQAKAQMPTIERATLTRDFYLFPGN

[3] = target: T3, human caspase-9 (Homo sapiens, UniProt P55211); conditions: Ac-P4-P3-P2-Asp-ACC substrate, 0.05-500 μM, 20-150 nM enzyme, 37°C, triplicate
T3 sequence (P55211 1-315 limits assumed): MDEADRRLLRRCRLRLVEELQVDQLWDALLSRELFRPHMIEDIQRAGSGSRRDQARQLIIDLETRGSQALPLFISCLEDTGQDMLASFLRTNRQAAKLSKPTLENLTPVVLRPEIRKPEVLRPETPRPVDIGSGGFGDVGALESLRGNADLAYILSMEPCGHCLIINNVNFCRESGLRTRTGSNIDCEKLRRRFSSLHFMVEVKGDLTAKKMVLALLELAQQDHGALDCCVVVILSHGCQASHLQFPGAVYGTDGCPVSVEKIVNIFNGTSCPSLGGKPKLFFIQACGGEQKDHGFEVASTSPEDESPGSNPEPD
T3 sequence (P55211 331-416 limits assumed): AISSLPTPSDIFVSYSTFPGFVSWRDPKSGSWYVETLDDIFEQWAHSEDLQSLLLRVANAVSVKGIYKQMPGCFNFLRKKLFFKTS

[4] = target: T4, human caspase-7 (Homo sapiens, UniProt P55210); conditions: Ac-P4-P3-P2-Asp-ACC substrate, 0.05-500 μM, 40-400 nM enzyme, 37°C, triplicate
T4 sequence (P55210 24-198 limits assumed): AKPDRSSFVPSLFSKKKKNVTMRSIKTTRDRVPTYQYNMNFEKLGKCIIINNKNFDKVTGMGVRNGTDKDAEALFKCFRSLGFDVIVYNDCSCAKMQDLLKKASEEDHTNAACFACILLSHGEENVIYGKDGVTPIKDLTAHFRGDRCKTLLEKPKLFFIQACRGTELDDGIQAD
T4 sequence (P55210 207-303 limits assumed): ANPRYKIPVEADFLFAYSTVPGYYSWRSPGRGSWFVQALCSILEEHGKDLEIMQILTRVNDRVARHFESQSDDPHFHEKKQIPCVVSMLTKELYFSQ

[5] = target: T5, human caspase-4 (Homo sapiens, UniProt P49662); conditions: Ac-P4-P3-P2-Asp-ACC substrate, 0.05-500 μM, 35-200 nM enzyme, 37°C, triplicate
T5 sequence (P49662 81-270 limits assumed): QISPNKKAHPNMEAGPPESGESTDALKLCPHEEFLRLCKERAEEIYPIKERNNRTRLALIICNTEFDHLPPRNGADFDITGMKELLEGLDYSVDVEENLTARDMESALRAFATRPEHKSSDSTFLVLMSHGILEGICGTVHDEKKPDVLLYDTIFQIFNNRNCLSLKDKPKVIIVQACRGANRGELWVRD
T5 sequence (P49662 290-377 limits assumed): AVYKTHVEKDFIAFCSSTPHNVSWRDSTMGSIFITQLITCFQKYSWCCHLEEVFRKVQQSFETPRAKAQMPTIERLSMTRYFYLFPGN

[6] = target: human caspase-8 (Homo sapiens, UniProt Q14790); conditions: Ac-P4-P3-P2-Asp-ACC substrate, 0.05-500 μM, 6-42 nM enzyme, 37°C, triplicate
Sequence of human caspase-8 (Q14790 217-374 limits assumed): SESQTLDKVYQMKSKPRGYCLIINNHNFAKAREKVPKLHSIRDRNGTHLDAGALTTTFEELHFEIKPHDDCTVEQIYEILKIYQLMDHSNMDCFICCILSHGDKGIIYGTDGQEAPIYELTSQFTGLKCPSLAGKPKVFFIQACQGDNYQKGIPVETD
Sequence of human caspase-8 (Q14790 385-479 limits assumed): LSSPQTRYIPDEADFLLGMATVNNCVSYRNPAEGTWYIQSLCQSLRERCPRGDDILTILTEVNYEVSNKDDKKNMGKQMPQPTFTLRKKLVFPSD

[7] = target: T6, human caspase-3 (Homo sapiens, UniProt P42574); conditions: Ac-P4-P3-P2-Asp-ACC substrate, 0.05-500 μM, 3-35 nM enzyme, 37°C, triplicate
T6 sequence (P42574 29-175 limits assumed): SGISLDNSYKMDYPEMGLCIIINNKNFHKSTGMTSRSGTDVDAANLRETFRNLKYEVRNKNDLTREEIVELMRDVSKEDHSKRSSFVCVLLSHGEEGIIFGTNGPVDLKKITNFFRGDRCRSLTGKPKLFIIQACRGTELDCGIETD
T6 sequence (P42574 176-277 limits assumed): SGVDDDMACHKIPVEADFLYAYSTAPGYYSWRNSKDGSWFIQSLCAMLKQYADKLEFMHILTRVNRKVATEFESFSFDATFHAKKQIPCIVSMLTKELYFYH

Substance | kcat/KM caspase-1 [1] | kcat/KM caspase-5 [2] | kcat/KM caspase-9 [3] | kcat/KM caspase-7 [4] | kcat/KM caspase-4 [5] | kcat/KM caspase-8 [6] | kcat/KM caspase-3 [7]
Asp-Glu-Val-Asp | 280 M⁻¹ s⁻¹ | 180 M⁻¹ s⁻¹ | 280 M⁻¹ s⁻¹ | 85 000 M^-1s^-1 | 260 M⁻¹ s⁻¹ | 73 200 M^-1s^-1 | 
Glu(Ochx)-Bip-His(Bzl)-Asp | < 10 M⁻¹ s⁻¹ | < 10 M⁻¹ s⁻¹ | 40 M⁻¹ s⁻¹ | 20 M⁻¹ s⁻¹ | < 10 M⁻¹ s⁻¹ | 110 M⁻¹ s⁻¹ | < 10 M⁻¹ s⁻¹
Ile-Glu-Thr-Asp | 1 430 M^-1s^-1 | 2 850 M^-1s^-1 | 2 300 M^-1s^-1 | 3 400 M^-1s^-1 | 1 010 M^-1s^-1 | 95 400 M^-1s^-1 | 21 200 M^-1s^-1
Leu-Glu-His-Asp | 97 500 M^-1s^-1 | 21 500 M^-1s^-1 | 12 700 M^-1s^-1 | 730 M⁻¹ s⁻¹ | 8 950 M^-1s^-1 | 186 000 M^-1s^-1 | 12 600 M^-1s^-1
Leu-Glu-Ser-Asp | 20 000 M^-1s^-1 | 13500 M⁻¹ s⁻¹ | 3550 M⁻¹ s⁻¹ | 20 M⁻¹ s⁻¹ | 3 390 M^-1s^-1 | 19 200 M^-1s^-1 | 950 M⁻¹ s⁻¹
Phe(2Cl)-Glu-Pip-Asp |  | 1 830 M^-1s^-1 | 2 300 M^-1s^-1 | 10 730 M^-1s^-1 | 9 760 M^-1s^-1 | 11 430 M^-1s^-1 | 103 000 M^-1s^-1
Phe-Glu-Ala-Asp | 57 100 M^-1s^-1 | 6 720 M^-1s^-1 | 530 M⁻¹ s⁻¹ | 180 M⁻¹ s⁻¹ | 870 M⁻¹ s⁻¹ | 3 890 M^-1s^-1 | 1 550 M^-1s^-1
Phe-Leu-Thr-Asp | 50 000 M^-1s^-1 | 1 190 M^-1s^-1 | 460 M⁻¹ s⁻¹ | 450 M⁻¹ s⁻¹ | 450 M⁻¹ s⁻¹ | 3 050 M^-1s^-1 | 3 490 M^-1s^-1
Pro-Bip-His(Bzl)-Asp | 13 800 M^-1s^-1 | 310 M⁻¹ s⁻¹ | 6 990 M^-1s^-1 | 40 M⁻¹ s⁻¹ | 590 M⁻¹ s⁻¹ | 2 750 M^-1s^-1 | 1 260 M^-1s^-1
Pro-Met-His-Asp | 13 200 M^-1s^-1 | 130 M⁻¹ s⁻¹ | 13 000 M^-1s^-1 | 100 M⁻¹ s⁻¹ | 460 M⁻¹ s⁻¹ | 3 570 M^-1s^-1 | 3 160 M^-1s^-1
Pro-Tyr-His-Asp | 10 900 M^-1s^-1 | 1 110 M^-1s^-1 | 11 080 M^-1s^-1 | 90 M⁻¹ s⁻¹ | 330 M⁻¹ s⁻¹ | 4 490 M^-1s^-1 | 2 110 M^-1s^-1
Thr-Trp-His-Asp | 4 500 M^-1s^-1 | 600 M⁻¹ s⁻¹ | 4 810 M^-1s^-1 | 710 M⁻¹ s⁻¹ | 450 M⁻¹ s⁻¹ | 1 100 M^-1s^-1 | 26 990 M^-1s^-1
Tle-Bpa-His(Bzl)-Asp | 25 300 M^-1s^-1 | 2 650 M^-1s^-1 | 4 210 M^-1s^-1 | 100 M⁻¹ s⁻¹ | 4 390 M^-1s^-1 | 6 400 M^-1s^-1 | 23 360 M^-1s^-1
Tle-hGlu-Thr(Bzl)-Asp | 12 400 M^-1s^-1 | 5 750 M^-1s^-1 | 7 820 M^-1s^-1 | 17 430 M^-1s^-1 | 2 130 M^-1s^-1 | 125 800 M^-1s^-1 | 179 800 M^-1s^-1
Trp(Me)-Dab-Pip-Asp | 176 200 M^-1s^-1 | 3 930 M^-1s^-1 | 120 M⁻¹ s⁻¹ | 20 M⁻¹ s⁻¹ | 4 340 M^-1s^-1 | 150 M⁻¹ s⁻¹ | 740 M⁻¹ s⁻¹
Trp(Me)-Glu-His(Bzl)-Asp | 623 800 M^-1s^-1 | 20 140 M^-1s^-1 | 6 670 M^-1s^-1 | 280 M⁻¹ s⁻¹ | 15 800 M^-1s^-1 | 7 620 M^-1s^-1 | 6 300 M^-1s^-1
Trp-Gln-Pro-Asp | 124 300 M^-1s^-1 | 5 420 M^-1s^-1 | 190 M⁻¹ s⁻¹ | 70 M⁻¹ s⁻¹ | 3 470 M^-1s^-1 | 2 480 M^-1s^-1 | 1 410 M^-1s^-1
Trp-Gln-Val-Asp | 124 800 M^-1s^-1 | 5 100 M^-1s^-1 | 220 M⁻¹ s⁻¹ | 100 M⁻¹ s⁻¹ | 4 300 M^-1s^-1 | 3 870 M^-1s^-1 | 12 140 M^-1s^-1
Tyr-Gln-2Aoc-Asp |  | 2 860 M^-1s^-1 | 310 M⁻¹ s⁻¹ | 190 M⁻¹ s⁻¹ | 1 100 M^-1s^-1 | 4 970 M^-1s^-1 | 2 580 M^-1s^-1
Val-Tyr(2,6Cl2Bzl)-His-Asp | < 10 M⁻¹ s⁻¹ |  | 480 M⁻¹ s⁻¹ | 80 M⁻¹ s⁻¹ | 100 M⁻¹ s⁻¹ | 750 M⁻¹ s⁻¹ | 3 400 M^-1s^-1
